Data on four compounds can be found in article PMC12595617, “Investigating the potential role of metabolic resistance genes in conferring cross-resistance to pyrethroids and polycyclic aromatic hydrocarbon pollutants in the major malaria vector Anopheles coluzzii” (BMC Genomics, 2025).

Structures are written as SMILES. Several values for one entry are separate records, joined by “and”; a condition that tells them apart may be missing. Equal values may be shown once. Read-outs that look alike come from different tables or passages of the source.

Data set [1] concerns recombinant CYP6Z2. How it is done:
(§1) The recombinant P450s used in this study were acquired from the enzyme characterization group (ECG) leader, Dr. Mark J.I. Paine of the Vector Biology Department, Liverpool School of Tropical Medicine. All the P450s were expressed from field-resistant populations of An. gambiae except for CYP6P9a, which was expressed from An. funestus. The heterologous expression of the P450s was conducted according to the previously described approaches. Briefly, P450s were expressed by using ompA and pelB signal sequences to direct P450 and An. gambiae CPR (AgCPR), respectively, to the inner membrane of E. coli a functional monooxygenase. The P450 sequences were amplified from cDNA and fused to the ompA signal peptides in simple PCR reactions. This is followed by ligation of the digested fragments into linearized expression vector pCWori+, thereby creating a construct pB13:ompA + 2-P450. Competent JM109 cells were co-transformed with plasmids pB13:ompA + 2-P450 and pACYC-AgCPR for the expression of functional P450 and An. gambiae CPR, respectively. Colonies carrying the two plasmids as confirmed by the colony PCR are used for a 12–14 h starter culture overnight. Typically, 0.2 L cultures were supplemented with 2 mL from the starter cultures and incubated at 37 °C and 200 rpm shaking while the absorbance at 600 nm was being monitored. When the OD reached 0.6–0.8, the cultures were cooled down to 25 °C for 30 min with shaking at 150 rpm. Induction with 1 mM isopropyl β-D-1-thiogalactopyranoside (IPTG) and 0.5 mM 5-aminolaevulinic acid (ALA) was conducted. Determinations of the P450 content and CPR activity were conducted using the procedure of [61] and [60], respectively.
(§2) To compare the metabolic activity of the microsomes and the recombinant cytochrome P450s towards PAH metabolism assays were conducted side by side as described earlier. The NADPH regeneration mixture (consisting of 0.1 M NADP+, 50mM potassium phosphate buffer, pH 7.4, 1 mM glucose-6-phosphate, 0.25 mM magnesium chloride and 1U/ml glucose-6-phosphate dehydrogenase) was used in the positive replicates. For the negatives, the same buffer with no added NADP + was used. Enzyme-buffer mix comprised of 0.05 µM recombinant P450 or microsome, 0.4 µM cytochrome b5, 50 mM potassium phosphate buffer pH 7.4 and 20 µM of the PAH substrates. To initiate the reactions, regeneration mixture was added to the enzyme-buffer mix in a 1:1 ratio (total of 200 µl) following activation for 5 min at 30 °C and 1200 rpm shaking. The reaction was run for 2 h at 30 °C with 200 rpm shaking. To stop the reaction, 200 µl of ice-cold High Performance Liquid Chromatography (HPLC) grade acetonitrile was added, followed by additional shaking for 5 min to precipitate the proteins. The mixture was kept on ice for 10 min before centrifuging at 16,000xg for 20 min. The supernatants were filtered through 0.45 μm PTFE filters (ThermoFisher Scientific, MA, USA) and filtrate transferred to HPLC vials for onward analysis.
(§3) Using the Agilent HPLC 1200 infinity series, analysis of the PAHs metabolism was conducted. The HPLC conditions consisted of mobile phases of HPLC grade acetonitrile and water in the ratio of 80/20 and detected at a wavelength of 254 nm.

Data set [2] deals with recombinant CYP6P3. The conditions noted are these: recombinant CYP6P3, 0.05 µM P450, 20 µM PAH, 2 h, 30 °C, +NADPH vs -NADPH. How it is done:
as §1, §2, §3

The subject of data set [3] is recombinant CYP6Z3. Here is the method:
as §1, §2, §3

Data set [4] deals with microsomes prepared from pyrethroid-resistant Anopheles coluzzii (Auyo). The conditions noted are these: Auyo (field-resistant) larval microsomes, 0.05 µM P450, 20 µM PAH, 2 h, 30 °C, +NADPH vs -NADPH, mean ± SD of three replicates. How it is done:
as §2, with “The supernatants were filtered through 0.45 μm PTFE filters (ThermoFisher Scientific, MA, USA) and filtrate transferred to HPLC vials for onward analysis.” left out
as §3

The test system of data set [5] is Auyo microsomal P450. Description: in vitro. The format is in vitro ADME, Anopheles coluzzii. Here is the method:
For the determination of steady-state kinetic parameters, assays were conducted for 30 min with 0.05 µM microsomal P450 while varying the concentrations of fluorene (0–600 µM). Kinetics plot of velocity against the substrate concentrations was made using the least squares non-linear regression in GraphPad Prism 6.03 Software (GraphPad Inc., La Jolla, CA, USA) that fits into the canonical Michaelis-Menten model as previously described for pyrethroid insecticides.

Data set [6] has as its system CYP9J5. The data set is classed as in vitro ADME, An. gambiae. The conditions noted are these: Anopheles gambiae, 2 h, 20 µM, pH 7.4.
Experimental: (§5) To compare the metabolic activity of the microsomes and the recombinant cytochrome P450s towards PAH metabolism assays were conducted side by side as described earlier [38, 43]. The NADPH regeneration mixture (consisting of 0.1 M NADP+, 50mM potassium phosphate buffer, pH 7.4, 1 mM glucose-6-phosphate, 0.25 mM magnesium chloride and 1U/ml glucose-6-phosphate dehydrogenase) was used in the positive replicates. For the negatives, the same buffer with no added NADP + was used. Enzyme-buffer mix comprised of 0.05 µM recombinant P450 or microsome, 0.4 µM cytochrome b5, 50 mM potassium phosphate buffer pH 7.4 and 20 µM of the PAH substrates. To initiate the reactions, regeneration mixture was added to the enzyme-buffer mix in a 1:1 ratio (total of 200 µl) following activation for 5 min at 30 °C and 1200 rpm shaking. The reaction was run for 2 h at 30 °C with 200 rpm shaking. […]
(§6) Using the Agilent HPLC 1200 infinity series, analysis of the PAHs metabolism was conducted. The HPLC conditions consisted of mobile phases of HPLC grade acetonitrile and water in the ratio of 80/20 and detected at a wavelength of 254 nm. […] Percentage depletions for each compound were calculated in both the microsomal and recombinant P450 studies. […]
The subject of data set [7] is Auyo microsomes. Description: Fluorene turnover assay using microsomes. The conditions noted are these: fluorene 30 µM, run time 15-150 min. The format is in vitro ADME, Anopheles coluzzii. How it is done: Because of the higher percentage of depletion observed in the Auyo microsomal metabolism of fluorene, it was chosen to be analysed further for its turnover and kinetic studies. To understand the turnover rates of the fluorene depletions, reaction run time was varied between 15 and 150 min. Specific points used were 15, 30, 45, 60, 90, 120 and 150 min while the fluorene concentration was maintained at 30 µM in all these time points.

The subject of data set [8] is CYP6P4. The data set is classed as in vitro ADME, An. gambiae. The conditions noted are these: Anopheles gambiae, 2 h, 20 µM, pH 7.4.
Experimental: as §5, §6
In data set [9] the test system is CYP9K1. The format is in vitro ADME, An. gambiae. The conditions noted are these: Anopheles gambiae, 2 h, 20 µM, pH 7.4.
Experimental: as §5, §6
For data set [10], the system named is Auyo microsomes. The experiment in a line: Microsomal P450 activity with model probe substrate DEF, Auyo. The data set is classed as biochemical, Anopheles coluzzii. The conditions noted are these: 10 µM DEF, 0.05 µM P450, read for 15 min. Here is the method:
(§4) P450 activity was determined in the prepared microsomes from both Auyo and Ngousso strains using diethoxyfluorescein (DEF) as the model fluorogenic substrate using the methods earlier described. Briefly, the enzyme-buffer mix consisted of 0.05 µM of cytochrome P450 (microsomes), 50 mM potassium phosphate buffer, pH 7.4, 0.5 µM cytochrome b5 and 10 µM DEF. To initiate the reactions in a 96-well plates (Thermo Labsystems, Basingstoke, UK), a NADPH ([…]) regeneration mix (consisting of 1mM glucose-6-phosphate, 0.1 M NADP+, 0.25mM magnesium chloride, IU/ml glucose-6-phosphate dehydrogenase and 50 mM potassium phosphate buffer pH 7.4) was added in the positive replicates whereas the same buffer with no NADPH was added in the negative wells. Using the excitation (482 nm) and emission (520 nm) wavelengths of DEF, the […] was read for 15 min, and the relative fluorescence unit per min per picomole of the P450 (RFU/min/pmol of P450) was determined.

The test system of data set [11] is Ngousso microsomes. Description: Microsomal P450 activity with model probe substrate DEF, Ngousso. The data set is classed as biochemical, Anopheles coluzzii. The conditions noted are these: 10 µM DEF, 0.05 µM P450, read for 15 min. How it is done: as §4
Data set [12] concerns all the recombinant P450s used in this study (CYPs 6M2, 6Z2, 6Z3, 9J5, 6P3, 6P4, 6P5, CYP9K1, CYP6P9a). Description: In vitro metabolism of PAHs with the whole recombinant P450 panel. The data set is classed as in vitro ADME, An. gambiae / An. funestus. The conditions noted are these: Anopheles gambiae; Anopheles funestus (CYP6P9a), 2 h, 20 µM, pH 7.4.
Experimental: as §5, §6

As for `c1ccc2c(c1)-c1cccc3cccc-2c13` [fluoranthene], the “metabolic activity (in words)” value in data set [1] (recombinant CYP6Z2) and in data set [3] (recombinant CYP6Z3) was “strong metabolic activity” throughout. The values for the percentage depletion entry in data set [2] and in data set [4] were “more than 40%” and 22.8 ± 5.2%, respectively.
Take `c1ccc2c(c1)Cc1ccccc1-2` [fluorene]: the Km at 30 min in data set [5] (Anopheles coluzzii) amounted to 58.7 µM. The “Catalytic rate (Kcat)” value in data set [5] (Auyo microsomes, 0.05 µM microsomal P450, 30 min, fluorene 0–600 µM) was 0.06993 s⁻¹ and 0.07 ± 0.00733 s⁻¹. The compound further came in with a catalytic efficiency in [5] (Auyo microsomes, fluorene) of 0.0715 ± 0.026 min⁻¹ µM⁻¹. Further, the percentage depletion in [6] is recorded as 7.7%; in [8], 9.3%; in [9] it was 8.5%. Besides, the “metabolic activity (in words)” value in data set [1] and in [3] was “strong metabolic activity” in each case. The Turnover in data set [7] is 37.016 min⁻¹ and 37.02 min⁻¹.
In the case of `CCOc1ccc2c(c1)Oc1cc(OCC)ccc1C21OC(=O)c2ccccc21` [DEF, diethoxyfluorescein], the DEF activity in data set [10] came out at 4.9 RFU/min/pmole P450; in [11], 4.4 RFU/min/pmole P450.
For `c1ccc2ccccc2c1` [naphthalene], the percentage depletion in data set [12] is less than 10%.
